US20140037798A1, “LIQUID NUTRITIONAL PRODUCTS COMPRISING METAL AMINO ACID CHELATES” (ABBOTT LABORATORIES, priority 2011, published 2014)

Experiments:
[1] = Vitamin B12 recovery in retort sterilized chocolate flavored nutritional emulsion (validated HPLC); conditions: copper ingredient 35 μM
Description: Once prepared, the emulsions are analyzed for vitamin B12 recovery using a fully validated HPLC method to determine the amount of vitamin B12 remaining (i.e., not lost to oxidative destruction) in the nutritional emulsion.

[2] = Methionine sulfoxide concentration in nutritional emulsion, marker of reactive oxygen species generation; assay type: physicochemical; conditions: copper ingredient 35 μM, retort sterilized
[3] = cocoa powder 0.80% (w/w), pH 6.8 HEPES, cocoa powder:iron 40:1, 99° C. thirty minutes, 0.45 μm filtrate
Description: The visible absorbance of liquids including a mixture of cocoa powder and an iron-containing component is measured to determine the ability of various ferric salts, including ferric amino acid chelates, to decrease reactivity between the iron and the cocoa powder.
Various samples are prepared as described herein using various iron-containing components. All mixtures contain cocoa powder at 0.80% (w/w) in pH 6.8 buffer (0.10M HEPES). The control liquid is prepared without any iron-containing component. In the remaining samples, the iron components are added so that the weight ratio of cocoa powder:iron is 40:1 (w/w).

Compound | Vitamin B12 [1] [µg/kg] | Methionine sulfoxide, as mole % of total methionine [2] [%] | Absorbance, Filtrate v. Blank, 535 nm [3] [mAU] | Absorbance, Filtrate v. Blank, 600 nm [3] [mAU] | Absorbance, Filtrate v. Blank, 700 nm [3] [mAU]
copper lysine chelate | 47.0 | 17.4 |  |  | 
Ferrous gluconate |  |  | 1230 | 1100 | 607
O=P([O-])([O-])[O-].[Fe+3] [Ferric orthophosphate, reference compound] |  |  | 579 | 237 | 65
NCC(=O)[O-].NCC(=O)[O-].[Fe+2] [Ferrous bis-glycinate] |  |  | 1200 | 1040 | 567
Ferrous sulfate [reference compound] |  |  | 1240 | 1150 | 688
Ferric bis-glycinate |  |  | 610 | 319 | 101
NCC(=O)[O-].NCC(=O)[O-].[Cu+2] [Copper bis-glycinate chelate, copper bis-glycinate chelate] | 41.3 | 18.1 |  |  | 
O.O.O.O.O.O=S(=O)([O-])[O-].[Cu+2] [Control (CuSO4), copper sulfate pentahydrate, reference compound] | 38.5 | 18.8 |  |  | 
copper gluconate | 46.4 | 17.9 |  |  | 
